This note sets out measurements from patent US4244946A, “Water-soluble peptides affecting gonadal function” (The Salk Institute for Biological Studies, priority 1979, dated 1981).

Assay [1] in a line: in vivo test of agonistic potency compared with LRF. On the procedure: The effectiveness of the peptide compositions prepared in Examples I and II is also tested in vivo, and the relative agonistic potencies of peptides determined in the in vitro assays reported above correlate well with the potencies obtained from in vivo tests.
In assay [2] the test system is dispersed rat pituitary cells. In words: LH secretion by four-day-old primary culture of dispersed rat pituitary cells over 4 hours, radioimmunoassay for rat LH. Type of assay: cell-based. The conditions noted are these: for relative potency, compared to LRF: in vitro LH release, confidence limits in parentheses; for NANOGRAMS OF LH SECRETED: Table I, 4-hour period. The protocol: The peptides prepared in the foregoing Example I are assayed in vitro using a four-day-old primary culture of dispersed rat pituitary cells and compared with LRF. The levels of LH secreted over a 4-hour period in response to the application of peptides are assayed by specific radioimmunoassay for rat LH. The results of testing are expressed in Table I herebelow: […]

Assay [3] deals with dispersed rat pituitary cells. The description is as above. The conditions noted are these: Table II, 4-hour period. Type of assay: cell-based.

Consider “[D-His^6 (im-Bzl), Pro^9 -NEt]-LRF [Example II]”, for which, in assay [1], the “potency compared with LRF when tested in vivo” value is “very significantly more potent than LRF”. The “relative potency, compared to LRF” value in assay [2] is given as 217(57-952) times that of LRF; in assay [2] (Pro^9 -NEt]-LRF) it was “more than 200 times that of LRF”. The “NANOGRAMS OF LH SECRETED” value in assay [3] (0.003 nM peptide) was found to be 895 nanograms; in assay [3] (0.01 nM peptide) it was 1256 nanograms; in assay [3] (0.03 nM peptide) it was 2008 nanograms.
With “p-Glu-His-Trp-Ser-Tyr-D-His(im-Bzl)-Leu-Arg-Pro-Gly-NH2 [Example I]”, the “potency compared with LRF when tested in vivo” value in assay [1] is recorded as “very significantly more potent than LRF”. Moreover, the “NANOGRAMS OF LH SECRETED” value was 885 nanograms in assay [2] (0.003 nM peptide); 1345 nanograms in assay [2] (0.01 nM peptide); 2150 nanograms in assay [2] (0.03 nM peptide); 2225 nanograms in assay [2] (0.1 nM peptide); 2667 nanograms in assay [2] (0.3 nM peptide). Besides, the “relative potency, compared to LRF” value is on record as 12(5.8-24) times that of LRF in assay [2] and “about 12 times that of LRF” in assay [2] (listed as [D-His^6 (im-Bzl)]-LRF).
On to `CC(C)C[C@H](NC(=O)CNC(=O)[C@H](Cc1ccc(O)cc1)NC(=O)[C@H](CO)NC(=O)[C@H](Cc1c[nH]c2ccccc12)NC(=O)[C@H](Cc1c[nH]cn1)NC(=O)[C@@H]1CCC(=O)N1)C(=O)N[C@@H](CCCNC(=N)N)C(=O)N1CCC[C@H]1C(=O)NCC(N)=O` [LRF, p-Glu-His-Trp-Ser-Tyr-Gly-Leu-Arg-Pro-Gly-NH2, reference compound], for which the “NANOGRAMS OF LH SECRETED” value in assay [2] (0.1 nM peptide) amounted to 1255 nanograms; in assay [2] (0.3 nM peptide), 1767 nanograms; in assay [2] (1.0 nM peptide), 2167 nanograms; in assay [2] (3.0 nM peptide), 2867 nanograms; in assay [3] (0.3 nM peptide), 631 nanograms; in assay [3] (1.0 nM peptide) it was 1001 nanograms. The “NANOGRAMS OF LH SECRETED” value in assay [3] (3.0 nM peptide) was 1496 nanograms.
